Test results: patent US20260027116A1, “Methods of Treating Chronic Graft-Versus-Host Disease Following Allogeneic Hematopoietic Stem Cell Transplantation” (Kadmon Corporation, LLC, priority 2022, published 2026)

Test system: patients with cGVHD
Conditions: Cohort 1 200 mg QD

CC(C)NC(=O)COc1cccc(-c2nc(Nc3ccc4[nH]ncc4c3)c3ccccc3n2)c1 [Belumosudil, 2-{3-[4-(1H-indazol-5-ylamino)-2-quinazolinyl]phenoxy}-N-(propan-2-yl) acetamide]
Grade ≥3 Lung infection or pneumonia, No. (%): 1 (6) | Graft versus host disease in gastrointestinal tract: # Events: 1 | Graft versus host disease in gastrointestinal tract: Affected/At Risk (%): 1/17 (5.88%) | Gynaecomastia: # Events: 0 | Gynaecomastia: Affected/At Risk (%): 0/17 (0%) | Haematuria: # Events: 1 | Haematuria: Affected/At Risk (%): 1/17 (5.88%) | Hair growth abnormal: # Events: 1 | Hair growth abnormal: Affected/At Risk (%): 1/17 (5.88%) | Headache: # Events: 4 | Headache: Affected/At Risk (%): 4/17 (23.53%) | Hodgkin's disease recurrent: # Events: 1 | Hodgkin's disease recurrent: Affected/At Risk (%): 1/17 (5.88%) | Hordeolum: # Events: 1 | Hordeolum: Affected/At Risk (%): 1/17 (5.88%) | Hot flush: # Events: 1 | Hot flush: Affected/At Risk (%): 1/17 (5.88%) | Hyperglycemia: # Events: 2 | Hyperglycemia: Affected/At Risk (%): 2/17 (11.76%) | Hyperhidrosis: # Events: 0 | Hyperhidrosis: Affected/At Risk (%): 0/17 (0%) | Hyperkalaemia: # Events: 7 | Hyperkalaemia: Affected/At Risk (%): 3/17 (17.65%) | Hypertension: # Events: 8 | Hypertension: Affected/At Risk (%): 5/17 (29.41%) | Hyperthyroidism: # Events: 0 | Hyperthyroidism: Affected/At Risk (%): 0/17 (0%) | Hypertriglyceridaemia: # Events: 0 | Hypertriglyceridaemia: Affected/At Risk (%): 0/17 (0%) | Hyperuricaemia: # Events: 6 | Hyperuricaemia: Affected/At Risk (%): 1/17 (5.88%) | Hypoaesthesia: # Events: 2 | Hypoaesthesia: Affected/At Risk (%): 1/17 (5.88%) | Hypocalcaemia: # Events: 0 | Hypocalcaemia: Affected/At Risk (%): 0/17 (0%) | Hypogonadism: # Events: 1 | Hypogonadism: Affected/At Risk (%): 1/17 (5.88%) | Hypokalaemia: # Events: 1 | Hypokalaemia: Affected/At Risk (%): 1/17 (5.88%) | Hypomagnesaemia: # Events: 1 | Hypomagnesaemia: Affected/At Risk (%): 1/17 (5.88%) | Hyponatraemia: # Events: 1 | Hyponatraemia: Affected/At Risk (%): 1/17 (5.88%) | Hypophosphataemia: # Events: 1 | Hypophosphataemia: Affected/At Risk (%): 1/17 (5.88%) | Hypothermia: # Events: 0 | Hypothermia: Affected/At Risk (%): 0/17 (0%) | Hypothyroidism: # Events: 2 | Hypothyroidism: Affected/At Risk (%): 1/17 (5.88%) | Hypoxia: # Events: 1 | Hypoxia: Affected/At Risk (%): 1/17 (5.88%) | Impaired healing: # Events: 1 | Impaired healing: Affected/At Risk (%): 1/17 (5.88%) | Influenza like illness: # Events: 1 | Influenza like illness: Affected/At Risk (%): 1/17 (5.88%) | Influenza: # Events: 2 | Influenza: Affected/At Risk (%): 2/17 (11.76%) | Insomnia: # Events: 0 | Insomnia: Affected/At Risk (%): 0/17 (0%) | Irritability: # Events: 1 | Irritability: Affected/At Risk (%): 1/17 (5.88%) | Joint range of motion decreased: # Events: 0 | Joint range of motion decreased: Affected/At Risk (%): 0/17 (0%) | Lacrimation increased: # Events: 0 | Lacrimation increased: Affected/At Risk (%): 0/17 (0%) | Leukaemia recurrent: # Events: 1 | Leukaemia recurrent: Affected/At Risk (%): 1/17 (5.88%) | Leukocytosis: # Events: 1 | Leukocytosis: Affected/At Risk (%): 1/17 (5.88%) | Ligament sprain: # Events: 1 | Ligament sprain: Affected/At Risk (%): 1/17 (5.88%) | Limb injury: # Events: 1 | Limb injury: Affected/At Risk (%): 1/17 (5.88%) | Macular degeneration: # Events: 0 | Macular degeneration: Affected/At Risk (%): 0/17 (0%) | Migraine: # Events: 0 | Migraine: Affected/At Risk (%): 0/17 (0%) | Muscle spasms: # Events: 1 | Muscle spasms: Affected/At Risk (%): 1/17 (5.88%) | Muscle spasticity: # Events: 1 | Muscle spasticity: Affected/At Risk (%): 1/17 (5.88%) | Muscular weakness: # Events: 6 | Muscular weakness: Affected/At Risk (%): 4/17 (23.53%) | Musculoskeletal chest pain: # Events: 1 | Musculoskeletal chest pain: Affected/At Risk (%): 1/17 (5.88%) | Myalgia: # Events: 2 | Myalgia: Affected/At Risk (%): 1/17 (5.88%) | Nail disorder: # Events: 1 | Nail disorder: Affected/At Risk (%): 1/17 (5.88%) | Nasal congestion: # Events: 3 | Nasal congestion: Affected/At Risk (%): 3/17 (17.65%) | Nausea: # Events: 10 | Nausea: Affected/At Risk (%): 6/17 (35.29%) | Neck pain: # Events: 1 | Neck pain: Affected/At Risk (%): 1/17 (5.88%) | Nephrotic syndrome: # Events: 1 | Nephrotic syndrome: Affected/At Risk (%): 1/17 (5.88%) | Neuropathy peripheral: # Events: 0 | Neuropathy peripheral: Affected/At Risk (%): 0/17 (0%) | Neutrophil count decreased: # Events: 1 | Neutrophil count decreased: Affected/At Risk (%): 1/17 (5.88%) | Nocturia: # Events: 1 | Nocturia: Affected/At Risk (%): 1/17 (5.88%) | Non-cardiac chest pain: # Events: 0 | Non-cardiac chest pain: Affected/At Risk (%): 0/17 (0%) | Obesity: # Events: 2 | Obesity: Affected/At Risk (%): 2/17 (11.76%) | Oedema peripheral: # Events: 3 | Oedema peripheral: Affected/At Risk (%): 3/17 (17.65%) | Oedema: # Events: 0 | Oedema: Affected/At Risk (%): 0/17 (0%) | Oesophageal ulcer: # Events: 0 | Oesophageal ulcer: Affected/At Risk (%): 0/17 (0%) | Oral candidiasis: # Events: 3 | Oral candidiasis: Affected/At Risk (%): 2/17 (11.76%) | Oropharyngeal pain: # Events: 1 | Oropharyngeal pain: Affected/At Risk (%): 1/17 (5.88%) | Orthopnoea: # Events: 1 | Orthopnoea: Affected/At Risk (%): 1/17 (5.88%) | Osteonecrosis: # Events: 1 | Osteonecrosis: Affected/At Risk (%): 1/17 (5.88%) | Osteopenia: # Events: 0 | Osteopenia: Affected/At Risk (%): 0/17 (0%) | Osteoporosis: # Events: 0 | Osteoporosis: Affected/At Risk (%): 0/17 (0%) | Overdose: # Events: 1 | Overdose: Affected/At Risk (%): 1/17 (5.88%) | Pain in extremity: # Events: 2 | Pain in extremity: Affected/At Risk (%): 2/17 (11.76%) | Pain: # Events: 3 | Pain: Affected/At Risk (%): 3/17 (17.65%) | Palpitations: # Events: 1 | Palpitations: Affected/At Risk (%): 1/17 (5.88%) | Paraesthesia: # Events: 0 | Paraesthesia: Affected/At Risk (%): 0/17 (0%) | Pericardial effusion: # Events: 1 | Pericardial effusion: Affected/At Risk (%): 1/17 (5.88%) | Peripheral coldness: # Events: 1 | Peripheral coldness: Affected/At Risk (%): 1/17 (5.88%) | Peripheral sensory neuropathy: # Events: 0 | Peripheral sensory neuropathy: Affected/At Risk (%): 0/17 (0%) | Phlebitis: # Events: 0 | Phlebitis: Affected/At Risk (%): 0/17 (0%) | Photophobia: # Events: 0 | Photophobia: Affected/At Risk (%): 0/17 (0%) | Platelet count decreased: # Events: 3 | Platelet count decreased: Affected/At Risk (%): 1/17 (5.88%) | Pleural effusion: # Events: 1 | Pleural effusion: Affected/At Risk (%): 1/17 (5.88%) | Pneumonia respiratory syncytial viral: # Events: 0 | Pneumonia respiratory syncytial viral: Affected/At Risk (%): 0/17 (0%) | Pneumonia: # Events: 2 | Pneumonia: Affected/At Risk (%): 1/17 (5.88%) | Pollakiuria: # Events: 1 | Pollakiuria: Affected/At Risk (%): 1/17 (5.88%) | Presyncope: # Events: 0 | Presyncope: Affected/At Risk (%): 0/17 (0%) | Productive cough: # Events: 2 | Productive cough: Affected/At Risk (%): 2/17 (11.76%) | Proteinuria: # Events: 2 | Proteinuria: Affected/At Risk (%): 2/17 (11.76%) | Pruritus: # Events: 1 | Pruritus: Affected/At Risk (%): 1/17 (5.88%) | Pseudomonas infection: # Events: 1 | Pseudomonas infection: Affected/At Risk (%): 1/17 (5.88%) | Pulmonary mass: # Events: 0 | Pulmonary mass: Affected/At Risk (%): 0/17 (0%) | Pyrexia: # Events: 3 | Pyrexia: Affected/At Risk (%): 1/17 (5.88%)
